Tested on: severe or critical COVID-19 infection
Assay: Randomized, double-blind, placebo-controlled study of tradipitant in hospitalized patients with COVID-19 pneumonia (interim analysis, ITT)
Type: in vivo
Details: ITT; for Hazard ratio (95% CI), responder as improvement of 2 or more points: tradipitant vs placebo, Cox model, >1 benefit for tradipitant
[1] = Day 7, ordinal score at baseline 2, tradipitant N = 4
[2] = Day 7, ordinal score at baseline 3, tradipitant N = 13
[3] = Day 7, ordinal score at baseline 4, tradipitant N = 9
[4] = Day 7, overall, tradipitant N = 28
[5] = Day 28, ordinal score at baseline 2, tradipitant N = 4
[6] = Day 28, ordinal score at baseline 3, tradipitant N = 13
[7] = Day 28, ordinal score at baseline 4, tradipitant N = 9
[8] = Day 28, overall, tradipitant N = 28
[9] = ordinal score at baseline 2, tradipitant N = 4
[10] = ordinal score at baseline 3, tradipitant N = 13

In the case of `O=C(c1ccccc1Cl)c1cccnc1-c1nnn(Cc2cc(C(F)(F)F)cc(C(F)(F)F)c2)c1-c1ccncc1` [Tradipitant], the “Median time to responder” value [1] is reported as 4 days, the “Mortality, KM estimate” value [1] is reported as 25.0% and the “No. of responders (improvement of 2 or more points on 7 point ordinal scale)” value (from here on “No. of responders”) [1] is reported as 3. For the same compound, the “Mortality, KM estimate” value [2] was 0.0%, the “No. of responders” value [2] was 2 and the “Median time to responder” value [3] was 4 days. The “Mortality, KM estimate” value [3] was 25.0%, the “No. of responders” value [3] was 6 and the “Mortality, KM estimate” value [4] was 9.8%. The “No. of responders” value [4] was 13, the “Hazard ratio (95% CI), responder as improvement of 2 or more points” value (Day 7, overall) was 2.55 and the “Median time to responder” value [5] was 4 days. The “Mortality, KM estimate” value [5] was 50.0%, the “No. of responders” value [5] was 3 and the “Median time to responder” value [6] was 27 days. The “Mortality, KM estimate” value [6] was 9.1%, the “No. of responders” value [6] was 4 and the “Median time to responder” value [7] was 4 days. For the same compound, the “Mortality, KM estimate” value [7] was 25.0%, the “No. of responders” value [7] was 7 and the “Median time to responder” value [8] was 10 days. The “Mortality, KM estimate” value [8] was 20.4%, the “No. of responders” value [8] was 16 and the “Hazard ratio (95% CI), responder as improvement of 2 or more points” value (Day 28, overall) was 1.55. For the same compound, the “No. of deaths by day 7” value [9] was 1, the “No. of deaths by day 28” value [9] was 2 and the “Ordinal Score at Day 7 = 1 (Death), % of patients” value [9] was “(25.0) %”. For the same compound, the “Ordinal Score at Day 7 = 1 (Death), no. of patients” value [9] was 1, the “Ordinal Score at Day 7 = 2 (Hospitalized, on invasive mechanical ventilation or ECMO), % of patients” value [9] was “(25.0) %” and the “Ordinal Score at Day 7 = 2 (Hospitalized, on invasive mechanical ventilation or ECMO), no. of patients” value [9] was 1. For the same compound, the “Ordinal Score at Day 7 = 3 (Hospitalized, on non-invasive ventilation or high flow oxygen devices), % of patients” value [9] was “(0.0) %”, the “Ordinal Score at Day 7 = 3 (Hospitalized, on non-invasive ventilation or high flow oxygen devices), no. of patients” value [9] was 0 and the “Ordinal Score at Day 7 = 4 (Hospitalized, requiring supplemental oxygen), % of patients” value [9] was “(25.0) %”. The “Ordinal Score at Day 7 = 4 (Hospitalized, requiring supplemental oxygen), no. of patients” value [9] was 1, the “Ordinal Score at Day 7 = 5 (Hospitalized, not requiring supplemental oxygen), % of patients” value [9] was “(25.0) %” and the “Ordinal Score at Day 7 = 5 (Hospitalized, not requiring supplemental oxygen), no. of patients” value [9] was 1. For the same compound, the “Ordinal Score at Day 7 = 7 (Not hospitalized), % of patients” value [9] was “(0.0) %”, the “Ordinal Score at Day 7 = 7 (Not hospitalized), no. of patients” value [9] was 0 and the “Ordinal Score at Day 28 = 1 (Death), % of patients” value [9] was “(50.0) %”. For the same compound, the “Ordinal Score at Day 28 = 1 (Death), no. of patients” value [9] was 2, the “Ordinal Score at Day 28 = 2 (Hospitalized, on invasive mechanical ventilation or ECMO), % of patients” value [9] was “(0.0) %” and the “Ordinal Score at Day 28 = 2 (Hospitalized, on invasive mechanical ventilation or ECMO), no. of patients” value [9] was 0. For the same compound, the “Ordinal Score at Day 28 = 3 (Hospitalized, on non-invasive ventilation or high flow oxygen devices), % of patients” value [9] was “(0.0) %”, the “Ordinal Score at Day 28 = 3 (Hospitalized, on non-invasive ventilation or high flow oxygen devices), no. of patients” value [9] was 0 and the “Ordinal Score at Day 28 = 4 (Hospitalized, requiring supplemental oxygen), % of patients” value [9] was “(0.0) %”. The “Ordinal Score at Day 28 = 4 (Hospitalized, requiring supplemental oxygen), no. of patients” value [9] was 0, the “Ordinal Score at Day 28 = 7 (Not hospitalized), % of patients” value [9] was “(50.0) %” and the “Ordinal Score at Day 28 = 7 (Not hospitalized), no. of patients” value [9] was 2. For the same compound, the “No. of deaths by day 7” value [10] was 0, the “No. of deaths by day 28” value [10] was 1 and the “Ordinal Score at Day 7 = 1 (Death), % of patients” value [10] was “(0.0) %”. The “Ordinal Score at Day 7 = 1 (Death), no. of patients” value [10] was 0, the “Ordinal Score at Day 7 = 2 (Hospitalized, on invasive mechanical ventilation or ECMO), % of patients” value [10] was “(61.5) %” and the “Ordinal Score at Day 7 = 2 (Hospitalized, on invasive mechanical ventilation or ECMO), no. of patients” value [10] was 8. The “Ordinal Score at Day 7 = 3 (Hospitalized, on non-invasive ventilation or high flow oxygen devices), % of patients” value [10] was “(23.1) %”, the “Ordinal Score at Day 7 = 3 (Hospitalized, on non-invasive ventilation or high flow oxygen devices), no. of patients” value [10] was 3 and the “Ordinal Score at Day 7 = 4 (Hospitalized, requiring supplemental oxygen), % of patients” value [10] was “(0.0) %”. For the same compound, the “Ordinal Score at Day 7 = 4 (Hospitalized, requiring supplemental oxygen), no. of patients” value [10] was 0, the “Ordinal Score at Day 7 = 5 (Hospitalized, not requiring supplemental oxygen), % of patients” value [10] was “(7.7) %” and the “Ordinal Score at Day 7 = 5 (Hospitalized, not requiring supplemental oxygen), no. of patients” value [10] was 1. The “Ordinal Score at Day 7 = 7 (Not hospitalized), % of patients” value [10] was “(7.7) %”.

Reference: patent US20240350469A1, “TREATMENT OF LOWER RESPIRATORY TRACT INFECTION WITH TRADIPITANT” (Vanda Pharmaceuticals Inc., priority 2021, published 2024)
